The values that follow come from patent US7495126B2, “Process of preparation of substituted tetrafluorobenzylaniline compound and its pharmaceutically approved salts” (priority 2005, dated 2009).

Broadly, the LD50 is the dose expected to kill half of the subjects tested. The term solubility denotes the dissolved amount per volume that the medium holds. A lower solubility goes with little dissolved substance.

Series [1] is described as follows: Acute toxicity test in rats, single intravenous dose. Particulars: male, Sprague-Dawley, rat, in vivo, iv; rats, single i.v. dose, 14 days; read-out: Estimated LD50. Format: in vivo.
For series [2], the system named is SD (Sprague Dawley) male rats. The series is described as above. Format: in vivo. The following applies: for Number of dead animals/Number of drug-treated animals: 14 days after administration.
Another series in a line: physchem. Format: physicochemical. Particulars: 25 °C, water, thermodynamic from solid.
The nature of series [3]: Stability test of oral preparation (powder in vial, HPLC). Particulars: for Residual amount: powder (solid).
Procedure: It was then stored at different temperatures (25° C., 40° C., 60° C.) for 6 months and the amount of active ingredients in powder were measured by HPLC.
Series [4] can be described thus: Stability test of injectable preparation (salt in WFI, HPLC).

Regarding `O=C(O)c1cc(NCc2c(F)c(F)c(C(F)(F)F)c(F)c2F)ccc1O` [free base form, 2-hydroxy-5-(2,3,5,6-tetrafluoro-4-trifluoromethyl-benzylamino)benzoic acid], the LD50 at 14 day in series [1] is 115 to 150 mg/kg. Besides, the “Number of dead animals/Number of drug-treated animals” value was 0/7 in series [2] (52 mg/kg single i.v. dose); 1/7 in series [2] (68 mg/kg single i.v. dose); 3/7 in series [2] (89 mg/kg single i.v. dose); 3/7 in series [2] (115 mg/kg single i.v. dose); 6/7 in series [2] (150 mg/kg single i.v. dose); 6/7 in series [2] (171 mg/kg single i.v. dose). In addition, the “Number of dead animals/Number of drug-treated animals” value in series [2] (184 mg/kg single i.v. dose) and in series [2] (195 mg/kg single i.v. dose) was 7/7 in each case.

Consider `O=C([O-])c1cc(NCc2c(F)c(F)c(C(F)(F)F)c(F)c2F)ccc1O.[Li+]` [lithium salt, lithium 2-hydroxy-5-(2,3,5,6-tetrafluoro-4-trifluoromethyl-benzylamino)benzoate], for which the solubility at 48 h in the series “physchem” was found to be 500 mg/mL. The Residual amount in series [3] (25° C., day 0) stood at 98.56 ± 0.89%; in series [3] (25° C., day 7) it was 98.32 ± 0.32%; in series [3] (25° C., day 14) it was 97.69 ± 2.58%; in series [3] (25° C., day 21), 96.87 ± 1.64%; in series [3] (25° C., day 30) it was 95.01 ± 1.10%; in series [3] (25° C., day 60) it was 94.78 ± 8.09%. For the same compound, the Residual amount in series [3] (25° C., day 120) is 92.69 ± 1.03%; in series [3] (25° C., day 180), 90.85 ± 1.61%; in series [3] (40° C., day 0) it was 98.56 ± 0.89%; in series [3] (40° C., day 7), 98.16 ± 0.09%; in series [3] (40° C., day 14) it was 96.18 ± 3.28%; in series [3] (40° C., day 21), 96.02 ± 2.49%. The Residual amount in series [3] (40° C., day 30) is on record as 95.96 ± 0.89%; in series [3] (40° C., day 60) it was 95.70 ± 6.88%; in series [3] (40° C., day 120) it was 95.58 ± 1.38%; in series [3] (40° C., day 180), 95.40 ± 2.37%; in series [3] (60° C., day 0), 98.56 ± 0.89%; in series [3] (60° C., day 7) it was 97.49 ± 0.80%. Moreover, the Residual amount stood at 96.45 ± 2.80% in series [3] (60° C., day 14); 95.87 ± 2.09% in series [3] (60° C., day 21); 95.69 ± 2.97% in series [3] (60° C., day 30); 95.51 ± 1.99% in series [3] (60° C., day 60); 94.84 ± 0.56% in series [3] (60° C., day 120); 92.48 ± 3.14% in series [3] (60° C., day 180).

Regarding `O=C([O-])c1cc(NCc2c(F)c(F)c(C(F)(F)F)c(F)c2F)ccc1O.[K+]` [potassium salt, potassium 2-hydroxy-5-(2,3,5,6-tetrafluoro-4-trifluoromethyl-benzylamino)benzoate], the solubility at 48 h in “physchem” came out at 590 mg/mL. Also, in series [1], the 50% lethal dose (LD50) at 14 day was 200 to 250 mg/kg. The “Number of dead animals/Number of drug-treated animals” value in series [2] (50 mg/kg single i.v. dose) is 0/6; in series [2] (100 mg/kg single i.v. dose), 0/6; in series [2] (150 mg/kg single i.v. dose), 0/6; in series [2] (200 mg/kg single i.v. dose), 0/6; in series [2] (250 mg/kg single i.v. dose) it was 3/3; in series [2] (300 mg/kg single i.v. dose), 1/1. Further, the “Number of dead animals/Number of drug-treated animals” value in series [2] (500 mg/kg single i.v. dose) is 2/2. The “toxicity compared with free base” value in series [2] (rats, i.v., Tables 7-9) is reported as “less toxicity than free base”. Moreover, the “stability in powder form” value in series [3] (high temperatures) was “relatively stable in high temperatures”. The Residual amount in series [3] (25° C., day 0) stood at 100.43 ± 0.30%; in series [3] (25° C., day 30), 100.31 ± 0.25%; in series [3] (25° C., day 60), 100.20 ± 0.55%; in series [3] (25° C., day 90), 100.17 ± 0.46%; in series [3] (25° C., day 120), 100.07 ± 0.43%; in series [3] (25° C., day 180), 100.03 ± 0.80%. The Residual amount in series [3] (40° C., day 0) stood at 100.43 ± 0.30%; in series [3] (40° C., day 30), 100.28 ± 1.10%; in series [3] (40° C., day 60), 100.14 ± 0.80%; in series [3] (40° C., day 90) it was 100.10 ± 0.71%; in series [3] (40° C., day 120) it was 99.81 ± 0.78%; in series [3] (40° C., day 180), 99.78 ± 0.31%. Also, the Residual amount was determined as 100.43 ± 0.30% in series [3] (60° C., day 0); 99.60 ± 0.50% in series [3] (60° C., day 30); 99.56 ± 0.85% in series [3] (60° C., day 60); 99.27 ± 0.80% in series [3] (60° C., day 90); 99.03 ± 0.90% in series [3] (60° C., day 120); 98.87 ± 0.92% in series [3] (60° C., day 180). Moreover, the Residual amount in series [4] (in WFI 2 mg/ml, 25° C., day 7) stood at 103.92 ± 1.20%. The “stability profile in injectable preparation” value in series [4] (in WFI, 25-60° C., 6 months) is “better than that of sodium- and lithium-salt compound”.
